The record followed here is patent publication US5747467A, “Erythromycins” (Roussel Uclaf, priority 1995, dated 1998).

Converted amounts (≈) assume the structure as drawn.

Common to all, as to format: cell-based
Assay [1] relates to Streptococcus mitis 02mitCB1. As to the kind of experiment: M.I.C., dilutions in liquid medium. The conditions noted are these: 24 hours at 37° C., read-out: minimal inhibitory concentration (M.I.C.). The protocol: (§1) Method of dilutions in liquid medium A series of tubes was prepared into which an equal quantity of sterile nutritive medium was distributed. Increasing quantities of the product to be studied were distributed into each tube and then each tube was seeded with a bacterial strain. After incubation for twenty-four hours in an oven at 37° C., the growth inhibition was evaluated by trans-illumination which allowed the minimal inhibitory concentrations (M.I.C.), expressed in micrograms/cm^3, to be determined.

Assay [2] relates to Staphylococcus epidermidis 012GO11I. As to the kind of experiment: M.I.C., dilutions in liquid medium. The note with it: 24 hours at 37° C., read-out: minimal inhibitory concentration (M.I.C.). The protocol: as §1
For assay [3], the system named is Streptococcus mitis 02mitGR16I. As to the kind of experiment: M.I.C., dilutions in liquid medium. The conditions noted are these: 24 hours at 37° C., read-out: minimal inhibitory concentration (M.I.C.). How it is done: as §1
Assay [4] relates to Streptococcus pneumoniae 030SJ5. As to the kind of experiment: M.I.C., dilutions in liquid medium. The note with it: 24 hours at 37° C., read-out: minimal inhibitory concentration (M.I.C.). The protocol:
as §1

Assay [5] concerns Streptococcus agalactiae group B 02B1SJ1. As to the kind of experiment: M.I.C., dilutions in liquid medium. The conditions noted are these: GROUPB02B1SJ1, 24 hours at 37° C., read-out: minimal inhibitory concentration (M.I.C.). The protocol: as §1
Assay [6] has as its system Staphylococcus aureus 011G025I. As to the kind of experiment: M.I.C., dilutions in liquid medium. The note with it: 24 hours at 37° C., read-out: minimal inhibitory concentration (M.I.C.). How it is done:
as §1

In assay [7] the test system is Streptococcus sp group G 02G0GR5. As to the kind of experiment: M.I.C., dilutions in liquid medium. The conditions noted are these: GROUPG02G0GR5, 24 hours at 37° C., read-out: minimal inhibitory concentration (M.I.C.). The protocol:
as §1

The subject of assay [8] is Staphylococcus aureus 011UC4. The experiment in a line: M.I.C., dilutions in liquid medium. The note with it: 24 hours at 37° C., read-out: minimal inhibitory concentration (M.I.C.). The protocol:
as §1

Assay [9] concerns Streptococcus faecium group D 02D3HT1. As to the kind of experiment: M.I.C., dilutions in liquid medium. The note with it: Enterococcus faecium, GROUPD02D3HT1, 24 hours at 37° C., read-out: minimal inhibitory concentration (M.I.C.). The protocol: as §1
In assay [10] the test system is Streptococcus agalactiae group B 02B1HT1. The experiment in a line: M.I.C., dilutions in liquid medium. The note with it: GROUPB02B1HT1, 24 hours at 37° C., read-out: minimal inhibitory concentration (M.I.C.). How it is done: as §1
For assay [11], the system named is Streptococcus pyogenes group A 02A1UC1. The experiment in a line: M.I.C., dilutions in liquid medium. The conditions noted are these: GROUPA02A1UC1, 24 hours at 37° C., read-out: minimal inhibitory concentration (M.I.C.). How it is done: as §1
For assay [12], the system named is Streptococcus faecalis group D 02D2UC1. As to the kind of experiment: M.I.C., dilutions in liquid medium. The conditions noted are these: Enterococcus faecalis, GROUPD02D2UC1, 24 hours at 37° C., read-out: minimal inhibitory concentration (M.I.C.). The protocol: as §1
The test system of assay [13] is Haemophilus Influenzae 351HT3, 351CB12, 351CA1 and 351GR6. The experiment in a line: activity on gram (-) bacterial strains. How it is done: as §1

On to `CC[C@H]1OC(=O)C(C)(F)C(=O)[C@H](C)[C@@H](O[C@@H]2O[C@H](C)C[C@H](N(C)C)[C@H]2O)[C@](C)(OC)C[C@@H](C)C(=O)[C@H](C)[C@H]2N(CCCCn3cnc4cccnc43)C(=O)O[C@]12C` (single isomer, unassigned) [Example 1, 11,12-dideoxy-3-de[(2,6-dideoxy-3-C-methyl-3-0-methyl-α-L-ribohexopyranosyl)-oxy]-2-fluoro-6-0-methyl-3-oxo-12,11-(oxycarbonyl( (4-(3H-imidazo(4,5-b)pyridin-3-yl)-butyl)-imino))-erythromycin], for which the MIC is at most 0.02 µg/mL in assay [1]; 0.15 µg/mL (≈ 0.187 µM) in [2]; at most 0.02 µg/mL in assay [3]; 0.02 µg/mL (≈ 0.0249 µM) in [4]; 0.08 µg/mL (≈ 0.0995 µM) in assay [5]; 0.08 µg/mL (≈ 0.0995 µM) in assay [6]. The MIC was 0.02 µg/mL (≈ 0.0249 µM) in [7]; 0.04 µg/mL (≈ 0.0498 µM) in [8]; at most 0.02 µg/mL in assay [9]; at most 0.02 µg/mL in assay [10]; at most 0.02 µg/mL in assay [11]; 0.02 µg/mL (≈ 0.0249 µM) in assay [12]. The “activity on gram (-) bacterial strains” value in assay [13] is listed as “very useful activity”.
